Molecules are shown by their SMILES.

The subject of the test is hCLRN1-YFP. The test can be described thus: Localization of wild-type hCLRN1-YFP in neuromast hair cells of hCLRN1-YFP; clrn1^+/+ larvae treated with SERCA inhibitors. In kind it is in vivo, zebrafish. Conditions: for Effect on pattern of localization of wild-type hCLRN1-YFP to the hair cell's bundle or plasma membrane: clrn1^+/+ larvae treated with TG or ART; for YFP intensity in the ROI in hair bundles (Mean±SEM): clrn1^+/+ larvae, 1 uM TG or 0.4 uM ART + 0.01% DMSO in E3 medium, E3 medium 62.82±2.15. Here is the method:
Thapsigargin (TG, 1 mg, Sigma-Aldrich, #T9033) stock in 100% DMSO was diluted in E3 medium to make the required final concentration of the drug. Five different concentrations that were earlier reported to induce ER stress and are non-toxic or lower lethal dose (LD50) in the zebrafish (0.1, 0.5, 1.0, 2.5, 5 μM concentrations) were used in this study. A total of 25 larvae per dosage and treatment duration from the genotypes hCLRN1^N48K-YFP; clrn1^+/+ and hCLRN1-YFP; clrn1^+/+, no older than 72 hours post fertilization (hpf) at the start of the experiment, were placed in a well of 12-well uncoated culture plate (BD Falcon, Canaan, CT). For ER stress induction, larvae were incubated in different dosage of TG from 1 hr to overnight at 28.5° C., followed by three times wash with E3 medium at 28.5° C. (Table 2) and hair cells from the hCLRN1^N48K-YFP; clrn1^+/+ and hCLRN1-YFP; clrn1^+/+ lines were examined for the respective protein distribution pattern in the hair cell bundle and the cell body. Live confocal images of ‘O’ and ‘ML1’ neuromasts per larvae were capture using Leica SP2 confocal microscope with 40× oil immersion objective. Unadjusted 1 micron middle section images of four hair bundles per ML1 neuromast of larvae from TG treated and untreated groups were analyzed using Image J software version v. 1.48 (FIG. 4). The hair bundle trafficked amount of hCLRN1^N48K protein corresponds to the change in YFP intensity in the hair bundle in the TG treated larvae. Quantification of YFP fluorescence intensity was carried out as described in the previous experiment for unconventional trafficking of hCLRN1^N48K-YFP by hGRASP55 cargos. […] Student's t-test was used to confirm the observed changes in the YFP intensity in the hair bundles of TG treatment compared to untreated hCLRN1^N48K-YFP; clrn1^+/+ larvae, is significant (FIG. 4J).
Arthemisinin (ART, 100 mg, Sigma-Aldrich, #361593) in 100% DMSO was diluted in E3 medium to make the final concentration. Five different concentrations within the range of reported ER stress inducing level in the zebrafish (0.1, 0.25, 0.4, 0.5, and 1 μM concentrations) were used in this study. A total of 25 larvae, no older than 72 hpf at the start of the experiment, were placed in a well of 12-well uncoated culture plate (BD 35 Falcon, Canaan, CT). […] From the captured confocal images of these neuromast hair cells, unadjusted 1 micron middle section images of 4 mature hair bundles from ML1 neuromast per larvae were considered for the YFP intensity quantification in unadjusted ROI covering the middle section of each hair bundles using the imageJ software. […] Quantification of YFP fluorescence intensity was carried out as described in the previous experiment for unconventional trafficking of hCLRN1^N48K-YFP by hGRASP55 cargos. […]

Regarding `C/C=C(/C)C(=O)O[C@H]1C(C)=C2[C@H]([C@@H]1OC(=O)CCCCCCC)[C@@](C)(OC(C)=O)C[C@H](OC(=O)CCC)[C@@]1(O)[C@H]2OC(=O)[C@@]1(C)O` [TG, Thapsigargin], the “Effect on pattern of localization of wild-type hCLRN1-YFP to the hair cell's bundle or plasma membrane” value is “did not affect the pattern of localization” and the “YFP intensity in the ROI in hair bundles (Mean±SEM)” value turned out to be 68.57±1.36.

Take `C[C@@H]1CC[C@H]2[C@@H](C)C(=O)O[C@@H]3O[C@@]4(C)CC[C@@H]1[C@]32OO4` [ART, Artemisinin]: the “Effect on pattern of localization of wild-type hCLRN1-YFP to the hair cell's bundle or plasma membrane” value is “did not affect the pattern of localization” and the “YFP intensity in the ROI in hair bundles (Mean±SEM)” value was 71.32±2.05.

Source of the values: US11865103B2, “Methods of treating disorders associated with glycosylation defective proteins” (CASE WESTERN RESERVE UNIVERSITY, priority 2016, dated 2024).
